# Measurements: paper PMC6394990, “Detailed characterization of the solution kinetics and thermodynamics of biotin, biocytin and HABA binding to avidin and streptavidin” (PLoS ONE, 2019)
# Where two headings read alike, the source gives them in different places.
# Biological target: T1, avidin (AV) (Gallus gallus, UniProt P02701)
# T1 construct: purchased Calbiochem (La Jolla, CA)
# Assay: Stopped-flow association kinetics of dye-labeled biotin probes binding to avidin (F(t), rF(t); Arrhenius plots/global fitting)
# Design: ln(k) / dS+ / dG+ / Eon for BFl / b of the line y = m1x+b1: unit not given here
# Settings: for k(average): k (full value)
# Experimental: These reactions were carried out in a buffered solution of 10 mM Tris-HCl, 100 mM KCl, 2.5 mM MgCl2 and 1 mM CaCl2 at pH 8 and only AV-BcO reactions included pH 9 and 10. The concentrations, after mixing, were of 20 nM of dye-labeled B7 probe and 260 nM, 520 nM or 1040 nM of AV; and 200 nM, 300 nM, 400 nM or 800 nM of SAV at temperatures of 10, 15, 20 and 25°C. The deglycosylation of AV (for comparative association reactions) was carried out using the provided standard protocol with endoglycosidase H [47], both with and without incubation of a denaturant solution (2% SDS and 1M 2-mercaptoethanol).
# The reactions were collected with the SF instrument, described previously. The fluorescence signal was collected through a 520 nm interference filter (Oriel Corp., Stratford, CT) with a detector time constant and SF dead time of 1 μs and 1 ms, respectively. The excitation light was provided by the Coherent Ar^+ ion laser (described above) at 488 nm with […] of incident power on the reaction cuvette. The laser source was followed by the photo-elastic modulator described above with the axis oriented 45^o with respect to the electric vector of the incident light and with the half-wave modulation (50 kHz) set for 488 nm excitation. The demodulation circuitry following the photomultiplier provided a DC(t) and a rectified AC(t) which were converted to digital data by a high-speed digitizer (PCI-5122) from National Instruments (Austin, TX) with 14-bit resolution and 100 MHz bandwidth, through channels 0 and 1. The data acquisition was controlled by LabVIEW (Vr 8) software at a collection rate of 6120 data points/second and stored in spreadsheets. The AC(t) and DC(t) data were baseline corrected before obtaining the signal ratio (Eq 4) as a function of time (ρt).
# The constant AGain is the instrumental amplitude gain and was evaluated by solving ρ(t) using the known steady state anisotropy (rss) of the complexes which is equivalent to the r(t) at t = ∞; and H, obtained from the equivalent grating factor (G) for the filters and photo multiplier tubes in the SF. For the probes used in here G was 0.82 and H = (1-G)/(1+G) = 0.099. Knowing Again and H, the AC(t) and DC(t) signals can be solved for r(t) and F(t) (Eqs 4 and 5) and the normalized fluorescence, F¯(t) , and corrected fluorescence anisotropy, rF¯(t), were obtained when F¯(0) and rF¯(0) were scaled to 1 at t = 0.
# The F¯(t) (Eq 6) is equivalent to (I||) + 2 (I⊥) and proportional to quantum yield (QYi), molar absorptivity (εi) and to the formation or disappearance of the emitting species Xi(t); and rF¯(t) including the steady state anisotropies (rss) of each fluorescent species (Eq 7).
# The possible reaction models were discriminated by the squared residuals of the observed and calculated association traces of both fluorescence and anisotropy fluorescence signals, F¯(t) and rF¯(t) , respectively.
# T1 sequence (P02701 25-152): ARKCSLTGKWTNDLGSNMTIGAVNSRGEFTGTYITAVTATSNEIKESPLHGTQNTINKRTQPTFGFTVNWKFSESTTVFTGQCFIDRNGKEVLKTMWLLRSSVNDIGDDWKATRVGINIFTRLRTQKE
compound,measurement,setting,value
"NC(CCCCNC(=O)CCCC[C@@H]1SC[C@@H]2NC(=O)N[C@@H]21)C(=O)NCCCCCNC(=O)c1ccc(-c2c3cc(F)c(=O)cc-3oc3cc(O)c(F)cc23)c(C(=O)O)c1 (some centres unmarked) [BcO, Oregon green 488 Biocytin]",kon fold slower than Green's 7 × 10^7 M^-1s^-1,25°C and pH 8 vs 25°C and pH 5,7.4 X
same,fold by which the SPR kon (ref 20) is slower than the kon of the probe,AV,~ 5 X
same,b of the line y = m1x+b1,"AV 1, reacting with BcO",40.2925
same,"slope, m of the line y = m1x+b1","AV 1, reacting with BcO, x = 1/Temp",-7277.8
same,kon by corrected fluorescence anisotropy rF(t),"AV-BcO, 10 °C, 260 nM",2.7e+06 ± 100000 M⁻¹ s⁻¹
same,kon,"AV-BcO, 10 °C, 260 nM, read-out: kon by corrected fluorescence anisotropy rF(t)",2.65e+06 M⁻¹ s⁻¹
same,kon,"AV-BcO, 10 °C, 260 nM, read-out: kon by fluorescence change F(t)",2.4e+06 ± 100000 M⁻¹ s⁻¹
same,kon,"AV-BcO, 10 °C, 260 nM, read-out: kon by fluorescence change F(t), right block without spread",2.42e+06 M⁻¹ s⁻¹
same,kon by corrected fluorescence anisotropy rF(t),"AV-BcO, 10 °C, 520 nM",2.7e+06 ± 100000 M⁻¹ s⁻¹
same,kon,"AV-BcO, 10 °C, 520 nM, read-out: kon by corrected fluorescence anisotropy rF(t)",2.69e+06 M⁻¹ s⁻¹
same,kon,"AV-BcO, 10 °C, 520 nM, read-out: kon by fluorescence change F(t)",2.6e+06 ± 200000 M⁻¹ s⁻¹
same,kon,"AV-BcO, 10 °C, 520 nM, read-out: kon by fluorescence change F(t), right block without spread",2.61e+06 M⁻¹ s⁻¹
same,kon by corrected fluorescence anisotropy rF(t),"AV-BcO, 10 °C, 1040 nM",2.7e+06 ± 100000 M⁻¹ s⁻¹
same,kon,"AV-BcO, 10 °C, 1040 nM, read-out: kon by corrected fluorescence anisotropy rF(t)",2.72e+06 M⁻¹ s⁻¹
same,kon,"AV-BcO, 10 °C, 1040 nM, read-out: kon by fluorescence change F(t)",2.5e+06 ± 200000 M⁻¹ s⁻¹
same,kon,"AV-BcO, 10 °C, 1040 nM, read-out: kon by fluorescence change F(t), right block without spread",2.52e+06 M⁻¹ s⁻¹
same,kon,"AV-BcO, 10 °C, average of F(t) and rF(t) at 260, 520, 1040 nM, read-out: kon, Average",2.6e+06 M⁻¹ s⁻¹
same,kon by corrected fluorescence anisotropy rF(t),"AV-BcO, 15 °C, 260 nM",4e+06 ± 100000 M⁻¹ s⁻¹
same,kon,"AV-BcO, 15 °C, 260 nM, read-out: kon by corrected fluorescence anisotropy rF(t)",4e+06 M⁻¹ s⁻¹
same,kon,"AV-BcO, 15 °C, 260 nM, read-out: kon by fluorescence change F(t)",4.1e+06 ± 100000 M⁻¹ s⁻¹
same,kon,"AV-BcO, 15 °C, 260 nM, read-out: kon by fluorescence change F(t), right block without spread",4.1e+06 M⁻¹ s⁻¹
same,kon by corrected fluorescence anisotropy rF(t),"AV-BcO, 15 °C, 520 nM",3.82e+06 ± 100000 M⁻¹ s⁻¹
same,kon,"AV-BcO, 15 °C, 520 nM, read-out: kon by corrected fluorescence anisotropy rF(t)",3.82e+06 M⁻¹ s⁻¹
same,kon,"AV-BcO, 15 °C, 520 nM, read-out: kon by fluorescence change F(t)",3.95e+06 ± 100000 M⁻¹ s⁻¹
same,kon,"AV-BcO, 15 °C, 520 nM, read-out: kon by fluorescence change F(t), right block without spread",3.95e+06 M⁻¹ s⁻¹
same,kon by corrected fluorescence anisotropy rF(t),"AV-BcO, 15 °C, 1040 nM",4e+06 ± 200000 M⁻¹ s⁻¹
same,kon,"AV-BcO, 15 °C, 1040 nM, read-out: kon by corrected fluorescence anisotropy rF(t)",4e+06 M⁻¹ s⁻¹
same,kon,"AV-BcO, 15 °C, 1040 nM, read-out: kon by fluorescence change F(t)",3.9e+06 ± 200000 M⁻¹ s⁻¹
same,kon,"AV-BcO, 15 °C, 1040 nM, read-out: kon by fluorescence change F(t), right block without spread",3.9e+06 M⁻¹ s⁻¹
same,kon,"AV-BcO, 15 °C, average of F(t) and rF(t) at 260, 520, 1040 nM, read-out: kon, Average",4e+06 M⁻¹ s⁻¹
same,kon,"AV-BcO, 20 °C, 260 nM, read-out: kon by corrected fluorescence anisotropy rF(t)",5.9e+06 M⁻¹ s⁻¹
same,kon,"AV-BcO, 20 °C, 260 nM, read-out: kon by fluorescence change F(t)",5.7e+06 ± 100000 M⁻¹ s⁻¹
same,kon,"AV-BcO, 20 °C, 260 nM, read-out: kon by fluorescence change F(t), right block without spread",5.7e+06 M⁻¹ s⁻¹
same,kon by corrected fluorescence anisotropy rF(t),"AV-BcO, 20 °C, 520 nM",5.8e+06 ± 100000 M⁻¹ s⁻¹
same,kon,"AV-BcO, 20 °C, 520 nM, read-out: kon by corrected fluorescence anisotropy rF(t)",5.8e+06 M⁻¹ s⁻¹
same,kon,"AV-BcO, 20 °C, 520 nM, read-out: kon by fluorescence change F(t)",5.9e+06 ± 300000 M⁻¹ s⁻¹
same,kon,"AV-BcO, 20 °C, 520 nM, read-out: kon by fluorescence change F(t), right block without spread",5.9e+06 M⁻¹ s⁻¹
same,kon by corrected fluorescence anisotropy rF(t),"AV-BcO, 20 °C, 1040 nM",6.1e+06 ± 100000 M⁻¹ s⁻¹
same,kon,"AV-BcO, 20 °C, 1040 nM, read-out: kon by corrected fluorescence anisotropy rF(t)",6.1e+06 M⁻¹ s⁻¹
same,kon,"AV-BcO, 20 °C, 1040 nM, read-out: kon by fluorescence change F(t)",6e+06 ± 100000 M⁻¹ s⁻¹
same,kon,"AV-BcO, 20 °C, 1040 nM, read-out: kon by fluorescence change F(t), right block without spread",6e+06 M⁻¹ s⁻¹
same,kon,"AV-BcO, 20 °C, average of F(t) and rF(t) at 260, 520, 1040 nM, read-out: kon, Average",5.9e+06 M⁻¹ s⁻¹
same,kon,"AV-BcO, 25 °C, 260 nM, read-out: kon by corrected fluorescence anisotropy rF(t)",9.5e+06 M⁻¹ s⁻¹
same,kon,"AV-BcO, 25 °C, 260 nM, read-out: kon by fluorescence change F(t)",9.5e+06 ± 100000 M⁻¹ s⁻¹
same,kon,"AV-BcO, 25 °C, 260 nM, read-out: kon by fluorescence change F(t), right block without spread",9.5e+06 M⁻¹ s⁻¹
same,kon,"AV-BcO, 25 °C, 520 nM, read-out: kon by corrected fluorescence anisotropy rF(t)",9.5e+06 M⁻¹ s⁻¹
same,kon,"AV-BcO, 25 °C, 520 nM, read-out: kon by fluorescence change F(t)",9.5e+06 ± 300000 M⁻¹ s⁻¹
same,kon,"AV-BcO, 25 °C, 520 nM, read-out: kon by fluorescence change F(t), right block without spread",9.5e+06 M⁻¹ s⁻¹
same,kon by corrected fluorescence anisotropy rF(t),"AV-BcO, 25 °C, 1040 nM",9.4e+06 ± 200000 M⁻¹ s⁻¹
same,kon,"AV-BcO, 25 °C, 1040 nM, read-out: kon by corrected fluorescence anisotropy rF(t)",9.4e+06 M⁻¹ s⁻¹
same,kon,"AV-BcO, 25 °C, 1040 nM, read-out: kon by fluorescence change F(t)",9.7e+06 ± 300000 M⁻¹ s⁻¹
same,kon,"AV-BcO, 25 °C, 1040 nM, read-out: kon by fluorescence change F(t), right block without spread",9.7e+06 M⁻¹ s⁻¹
same,kon,"AV-BcO, 25 °C, average of F(t) and rF(t) at 260, 520, 1040 nM, read-out: kon, Average",9.5e+06 M⁻¹ s⁻¹
same,Ea^Forward,"AV, pH 8",14.4 ± 0.6 kcal/mol
same,ln(k),"AV, pH8, 10 (283.15 K)",14.8
same,k(average),"AV, pH8, 10 (283.15 K)",2.60E+06
same,kon,"AV, pH8, 10 (283.15 K), k (scaled)",2.6e+06 M⁻¹ s⁻¹
same,ln(k),"AV, pH8, 15 (288.15 K)",15.2
same,k(average),"AV, pH8, 15 (288.15 K)",3.90E+06
same,kon,"AV, pH8, 15 (288.15 K), k (scaled)",3.9e+06 M⁻¹ s⁻¹
same,ln(k),"AV, pH8, 20 (293.15 K)",15.6
same,k(average),"AV, pH8, 20 (293.15 K)",5.90E+06
same,kon,"AV, pH8, 20 (293.15 K), k (scaled)",5.9e+06 M⁻¹ s⁻¹
same,ln(k),"AV, pH8, 25 (298.15 K)",16.1
same,k(average),"AV, pH8, 25 (298.15 K)",9.50E+06
same,kon,"AV, pH8, 25 (298.15 K), k (scaled)",9.5e+06 M⁻¹ s⁻¹
same,ΔG^ǂ,"AV, pH 8, forward",4.6 ± 0.3 kcal/mol
same,ΔS^ǂ,"AV, pH 8, forward",33.0 ± 2.5 cal/°K·mol
same,Ea^Forward,"AV, pH 9",13.9 ± 0.7 kcal/mol
same,ln(k),"AV, pH 9, 10 (283.15 K)",14.7
same,k(average),"AV, pH 9, 10 (283.15 K)",2.31E+06
same,kon,"AV, pH 9, 10 (283.15 K), k (scaled)",2.3e+06 M⁻¹ s⁻¹
same,ln(k),"AV, pH 9, 15 (288.15 K)",15.0
same,k(average),"AV, pH 9, 15 (288.15 K)",3.36E+06
